Experimental data as given in paper PMC7679134, “Probing the ionotropic activity of glutamate GluD2 receptor in HEK cells with genetically-engineered photopharmacology” (eLife, 2020).
Residue numbers refer to the chain shown, from its start.

Key:
Format in all cases: cell-based
GluD2 [1] = target: T1, GluD2 (Mus musculus, UniProt Q61625, A654T/Q674C); experiment: whole-cell patch-clamp photoswitching after covalent labeling
T1 construct: gene Grid2; pcDNA3-GluD2 expressed in HEK tsA201 cells
T1 sequence (Q61625 24-1007 A654T/Q674C): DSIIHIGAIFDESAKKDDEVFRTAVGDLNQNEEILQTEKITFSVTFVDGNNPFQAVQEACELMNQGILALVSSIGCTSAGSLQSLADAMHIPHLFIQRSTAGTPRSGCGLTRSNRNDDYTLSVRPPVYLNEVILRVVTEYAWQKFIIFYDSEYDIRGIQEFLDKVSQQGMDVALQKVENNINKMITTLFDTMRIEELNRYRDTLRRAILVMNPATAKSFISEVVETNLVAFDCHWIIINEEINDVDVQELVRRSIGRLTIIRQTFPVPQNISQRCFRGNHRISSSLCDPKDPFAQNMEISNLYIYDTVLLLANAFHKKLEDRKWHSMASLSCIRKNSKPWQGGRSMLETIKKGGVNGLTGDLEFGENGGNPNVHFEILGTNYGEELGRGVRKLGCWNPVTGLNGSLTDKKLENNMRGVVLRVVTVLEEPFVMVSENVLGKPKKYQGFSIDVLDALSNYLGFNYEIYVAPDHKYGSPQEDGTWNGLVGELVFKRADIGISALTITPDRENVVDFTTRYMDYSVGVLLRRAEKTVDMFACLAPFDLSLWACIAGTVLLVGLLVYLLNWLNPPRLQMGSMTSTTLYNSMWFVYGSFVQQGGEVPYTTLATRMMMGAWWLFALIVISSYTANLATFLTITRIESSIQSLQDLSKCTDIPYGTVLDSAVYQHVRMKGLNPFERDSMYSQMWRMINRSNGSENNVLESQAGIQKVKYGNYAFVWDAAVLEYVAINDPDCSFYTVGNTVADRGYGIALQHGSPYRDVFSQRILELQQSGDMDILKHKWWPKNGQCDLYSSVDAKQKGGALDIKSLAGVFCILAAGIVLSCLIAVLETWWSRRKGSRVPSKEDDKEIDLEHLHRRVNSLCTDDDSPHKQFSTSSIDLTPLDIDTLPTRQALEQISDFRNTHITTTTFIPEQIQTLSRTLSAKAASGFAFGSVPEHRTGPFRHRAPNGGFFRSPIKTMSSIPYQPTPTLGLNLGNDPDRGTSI

GluD2 [2] = target: T2, GluD2 (Mus musculus, UniProt Q61625, A654T/Q666C); experiment: as above
T2 construct: gene Grid2; pcDNA3-GluD2 expressed in HEK tsA201 cells
T2 sequence (Q61625 24-1007 A654T/Q666C): T1 sequence (Q61625 24-1007 A654T/Q674C) with Q643C, C651Q

GluD2 [3] = target: T3, GluD2 (Mus musculus, UniProt Q61625, A654T/D670C); experiment: as above
T3 construct: gene Grid2; pcDNA3-GluD2 expressed in HEK tsA201 cells
T3 sequence (Q61625 24-1007 A654T/D670C): T1 sequence (Q61625 24-1007 A654T/Q674C) with D647C, C651Q

GluD2 [4] = target: T4, GluD2 (Mus musculus, UniProt Q61625, I677C); experiment: patch-clamp of DHPG-induced current under […] vs […] nm light; WT control insensitive
T4 construct: gene Grid2; non-Lurcher GluD2 (LiGluD2) co-expressed with mGlu1b in HEK tsA201 cells
T4 sequence (Q61625 24-1007 I677C): T1 sequence (Q61625 24-1007 A654T/Q674C) with T631A, C651Q, I654C

GluD2 [5] = target: T5, GluD2 (Mus musculus, UniProt Q61625, A654T/I677C); experiment: whole-cell patch-clamp dose-response ([…]) under […] nm light; […] under […] nm
T5 construct: gene Grid2; pcDNA3-GluD2 expressed in HEK tsA201 cells, conjugated with MAGu
T5 sequence (Q61625 24-1007 A654T/I677C): T1 sequence (Q61625 24-1007 A654T/Q674C) with C651Q, I654C

SMILES | % photoswitching (relative to pentamidine block) (GluD2 [1]) | % photoswitching (relative to pentamidine block) (GluD2 [2]) | % photoswitching (relative to pentamidine block) (GluD2 [3]) | % reduction of DHPG-induced current (535 vs 380 nm) (GluD2 [4]) | IC50 (GluD2 [5])
N=C(N)NCC(=O)Nc1ccc(/N=N/c2ccc(NC(=O)CCN3C(=O)C=CC3=O)cc2)cc1 [MAGu] | 20.5 % photoswitching (relative to pentamidine block) | 15.5 % photoswitching (relative to pentamidine block) | 14.6 % photoswitching (relative to pentamidine block) | 22.8 % reduction of DHPG-induced current (535 vs 380 nm) | –
N=C(N)c1ccc(OCCCCCOc2ccc(C(=N)N)cc2)cc1 [Pentamidine] | – | – | – | – | 5.1 µM
